Reference: ChEMBL document CHEMBL4417636, “Small molecule inhibitors of pendrin ion exchange and pharmaceutical compositions” (2017)
Activity calls are given as the source filed them. No cut-off for these calls is given here.

Assays:
[1] = target: T1, Solute carrier family 12 member 2 (Homo sapiens) (UniProt P55011); test: Inhibition of NKCC1 in human bronchial epithelial cells assessed as effect on short-circuit current at 25 uM pre-incubated for 30 mins
T1 sequence (whole entry): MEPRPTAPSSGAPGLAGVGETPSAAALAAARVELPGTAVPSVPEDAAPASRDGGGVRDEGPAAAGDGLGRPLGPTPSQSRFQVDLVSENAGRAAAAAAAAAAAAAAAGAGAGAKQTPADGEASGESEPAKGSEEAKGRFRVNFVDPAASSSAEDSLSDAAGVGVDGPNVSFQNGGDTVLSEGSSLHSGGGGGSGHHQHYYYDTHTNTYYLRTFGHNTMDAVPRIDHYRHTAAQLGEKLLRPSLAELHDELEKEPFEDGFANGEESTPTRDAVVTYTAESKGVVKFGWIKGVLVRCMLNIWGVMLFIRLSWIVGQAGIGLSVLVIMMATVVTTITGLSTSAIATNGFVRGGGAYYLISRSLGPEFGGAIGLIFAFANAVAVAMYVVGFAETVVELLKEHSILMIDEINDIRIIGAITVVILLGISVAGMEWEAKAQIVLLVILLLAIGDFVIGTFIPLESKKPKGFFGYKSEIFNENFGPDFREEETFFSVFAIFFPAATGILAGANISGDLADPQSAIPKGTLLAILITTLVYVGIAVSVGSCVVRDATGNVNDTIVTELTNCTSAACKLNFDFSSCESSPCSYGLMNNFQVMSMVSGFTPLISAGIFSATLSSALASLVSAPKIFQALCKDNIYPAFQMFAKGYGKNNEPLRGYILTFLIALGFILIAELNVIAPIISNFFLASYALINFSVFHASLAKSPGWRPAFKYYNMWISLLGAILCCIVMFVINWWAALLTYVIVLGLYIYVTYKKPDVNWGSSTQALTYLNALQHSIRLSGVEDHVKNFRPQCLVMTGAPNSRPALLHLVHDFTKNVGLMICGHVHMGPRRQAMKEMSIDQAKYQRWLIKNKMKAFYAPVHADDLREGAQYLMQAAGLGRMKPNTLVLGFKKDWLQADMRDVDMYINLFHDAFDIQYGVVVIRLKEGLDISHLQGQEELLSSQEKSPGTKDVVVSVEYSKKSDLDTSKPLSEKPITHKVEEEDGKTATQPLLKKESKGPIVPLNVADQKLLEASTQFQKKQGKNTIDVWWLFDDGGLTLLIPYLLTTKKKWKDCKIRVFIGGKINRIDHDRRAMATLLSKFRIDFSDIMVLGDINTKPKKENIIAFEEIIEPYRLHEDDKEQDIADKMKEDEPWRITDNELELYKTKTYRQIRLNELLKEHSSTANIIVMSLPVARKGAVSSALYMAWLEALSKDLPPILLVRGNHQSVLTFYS

[2] = target: T2, Chloride anion exchanger (Homo sapiens) (UniProt P40879); test: Inhibition of human SLC26A3 expressed in COS7 co-expressing EYFP-HIF assessed as reduction in SCN gradient
T2 sequence (whole entry): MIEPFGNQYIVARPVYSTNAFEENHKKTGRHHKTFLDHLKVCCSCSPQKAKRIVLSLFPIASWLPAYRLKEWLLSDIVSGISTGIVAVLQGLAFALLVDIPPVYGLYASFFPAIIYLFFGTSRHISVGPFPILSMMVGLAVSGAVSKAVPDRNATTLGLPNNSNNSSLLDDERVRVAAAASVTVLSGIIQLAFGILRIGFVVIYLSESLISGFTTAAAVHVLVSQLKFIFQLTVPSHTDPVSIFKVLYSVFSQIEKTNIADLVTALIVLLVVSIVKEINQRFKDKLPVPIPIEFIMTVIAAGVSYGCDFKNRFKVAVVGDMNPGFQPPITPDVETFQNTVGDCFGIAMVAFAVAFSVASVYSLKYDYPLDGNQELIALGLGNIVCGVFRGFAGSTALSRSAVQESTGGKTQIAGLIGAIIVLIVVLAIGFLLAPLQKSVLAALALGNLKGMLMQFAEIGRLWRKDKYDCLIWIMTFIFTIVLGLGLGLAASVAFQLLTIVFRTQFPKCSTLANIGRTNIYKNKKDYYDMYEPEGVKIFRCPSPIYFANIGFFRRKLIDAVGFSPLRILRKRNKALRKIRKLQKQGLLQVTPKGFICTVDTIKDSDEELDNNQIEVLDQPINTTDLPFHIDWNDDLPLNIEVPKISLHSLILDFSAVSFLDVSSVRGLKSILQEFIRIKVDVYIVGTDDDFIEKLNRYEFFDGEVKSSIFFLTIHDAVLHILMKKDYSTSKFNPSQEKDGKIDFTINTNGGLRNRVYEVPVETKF

Homo sapiens = organism: Homo sapiens; test: Effect on gluconate gradient-induced Cl/HC03- efflux in NHBE cells at 25 uM; format: functional, cell-based
Pendrin (Homo sapiens) = target: T3, Pendrin (Homo sapiens) (UniProt O43511); test: Inhibition of pendrin in IL13-stimulated human CFBE assessed as reduction in gluconate gradient-induced intracellular alkalization at 25 uM; format: cell-based
T3 sequence (whole entry): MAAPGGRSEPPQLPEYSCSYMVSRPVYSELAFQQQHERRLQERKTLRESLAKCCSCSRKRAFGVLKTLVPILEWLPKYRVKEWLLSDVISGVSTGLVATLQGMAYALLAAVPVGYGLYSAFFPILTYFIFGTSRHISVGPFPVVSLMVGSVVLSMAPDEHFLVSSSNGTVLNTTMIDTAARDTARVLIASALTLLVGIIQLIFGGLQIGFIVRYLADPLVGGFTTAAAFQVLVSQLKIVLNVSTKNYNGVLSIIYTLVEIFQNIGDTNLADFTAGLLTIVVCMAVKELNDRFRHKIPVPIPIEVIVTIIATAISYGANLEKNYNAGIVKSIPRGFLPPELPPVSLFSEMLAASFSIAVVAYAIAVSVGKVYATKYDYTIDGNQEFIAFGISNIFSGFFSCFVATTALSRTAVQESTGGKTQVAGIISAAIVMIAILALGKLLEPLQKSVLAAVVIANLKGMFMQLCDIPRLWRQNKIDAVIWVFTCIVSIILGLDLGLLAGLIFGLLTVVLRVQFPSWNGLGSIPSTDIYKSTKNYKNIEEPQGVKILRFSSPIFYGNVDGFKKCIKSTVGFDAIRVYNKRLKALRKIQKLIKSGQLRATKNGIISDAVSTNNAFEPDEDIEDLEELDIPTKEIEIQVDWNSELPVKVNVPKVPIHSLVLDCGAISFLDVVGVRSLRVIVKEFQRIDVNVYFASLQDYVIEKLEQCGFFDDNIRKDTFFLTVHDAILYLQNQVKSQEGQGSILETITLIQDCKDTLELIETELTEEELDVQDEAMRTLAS

Mus musculus [3] = test: Potentiation of 20 mg/kg, ip bid for 8 days furosemide-induced chronic diuretic action in CD1 mouse assessed as increase in urine volume at 10 mg/kg, ip measured at 3 hrs relative to control; format: functional
Mus musculus [4] = test: Potentiation of 20 mg/kg, ip furosemide-induced acute diuretic action in CD1 mouse assessed as increase in urinary Na+ excretion at 10 mg/kg, ip measured at 3 hrs relative to control; format: functional, organism-based

| Compound | inhibition [1] | inhibition [2] | Activity (Homo sapiens) | inhibition (Pendrin (Homo sapiens)) | Activity (Mus musculus [3]) [%] | Activity (Mus musculus [4]) |
| --- | --- | --- | --- | --- | --- | --- |
| Cn1nc(COc2cccc(F)c2)c2c1CCN(C(=O)Nc1ccc(Cl)cc1)C2 | inactive | inactive | inactive | Active | 60 | – |
| Cc1n[nH]c(-c2cc(S(=O)(=O)NC3CCCc4ccccc43)c(C)s2)c1C (stereo unspecified) | – | – | – | – | – | Active |
